Assay results reported in publication PMC6992764 (Nature Communications, 2020).

Tests used:
[1] = biological target: p53-MDM2 interaction (Homo sapiens, UniProt Q00987); test: HTRF p53-MDM2 interaction counter assay; type: binding
[2] = test system: THP-1 cells; test: Chemotaxis assay using TAXIScan; type: cell-based, human; details: DSF 50 µM, towards CCL2
Procedure: The TAXIScan device (ECI, Tokyo, Japan) is an optically accessible horizontal chemotaxis apparatus consisting of an etched silicon substrate and a flat glass plate, which form two compartments separated by a 5-μm deep microchannel. THP-1 cells were applied through a hole connected to one of the compartments and aligned along the start line on the edge of the channel. Human CCL2 (10 ng mL^–1) was applied through a hole connected to the other compartment to form a concentration gradient in the channel. Time-lapse images were recorded every 30 s for 30 min and cell movement was analyzed using TAXIScan analyzer software (ECI, Tokyo, Japan).

[3] = test system: Lewis lung carcinoma (LLC); test: LLC subcutaneous tumor-growth model; type: in vivo, mice
Procedure: For evaluating subcutaneous tumor growth, LLC or B16 cells (5 × 10^5) in 50 μl PBS were inoculated subcutaneously into the right flanks of mice. Mice were euthanized when their tumor volumes reached 4000 mm^3. Tumor sizes were measured twice a week using calipers. Tumor volume was calculated using the following formula: Volume = (width)^2 × length/2. For the lung metastasis model, 1 × 10^6 LLC or B16 cells in 200 μl PBS were injected intravenously into mice. Mice were euthanized at day 10 after tumor injection for the LLC model and day 5–9 for the B16 model, and the lungs were isolated after perfusion with PBS via the left ventricle. Visible lung metastases were counted in the left lobe. The diameters of metastatic nodules in the lung lobe image were measured using ImageJ software. […]
Cells for flow cytometric analysis were prepared as follows: bone marrow cells were flushed from femurs, followed by incubation with ACK buffer to remove red blood cells. […] After blocking Fc receptors through incubation with an anti-mouse CD16/32 antibody (clone 2.4G2, dilution 1:100, Cat BE0307), cells were stained with fluorescence-labeled anti-mouse monoclonal antibodies. […] Flow cytometry data were obtained using a Gallios flow cytometer (Beckman Coulter) and analyzed with FlowJo software (version 10; FlowJo, LLC). […]

[4] = biological target: T1, FROUNT-CCR5 interaction (Homo sapiens, UniProt Q9BW27); test: HTRF FROUNT-CCR5 interaction assay; type: binding
T1 construct: GST-fused FROUNT (FNT-C)
T1 sequence (Q9BW27 500-656 limits assumed): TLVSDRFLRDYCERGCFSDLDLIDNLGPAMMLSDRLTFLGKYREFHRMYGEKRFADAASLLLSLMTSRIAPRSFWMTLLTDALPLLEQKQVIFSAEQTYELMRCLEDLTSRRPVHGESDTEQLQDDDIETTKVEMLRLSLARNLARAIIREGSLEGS

[5] = test system: PI3K activation in CCR2-expressing Chinese hamster ovary cells; test: PH-Akt domain translocation assay; type: cell-based; details: 25 µM DSF for 30 min
Description: CCR2-expressing Chinese hamster ovary cells were transfected with PH-Akt-tHcRed. […] Cells were visualized with confocal microscopy using SP5 (Leica).

[6] = test system: peritoneal macrophages; test: CCL2-induced pseudopodia protrusion of macrophages; type: cell-based, mice; details: 25 µM, 1 h pre-incubation
Procedure: Peritoneal macrophages were isolated from mice, seeded in the 8-well glass-based dishes (Life Technologies) and incubated overnight at 37 °C to allow the cells to adhere. After serum starvation for 6 h, cells were stimulated with chemokine at a concentration of 100 ng mL^–1, then fixed with 4% paraformaldehyde (Wako) and permeabilized with 0.1% Triton X-100 (Wako) in PBS, followed by staining with phalloidin conjugated with Alexa Fluor 594 (Life Technologies). […] Tumor macrophages were isolated from collagenase digestion of tumor tissue as attached cells by washing non-adherent cells away and further culturing them in DMEM containing 10 nM M-CSF (BD Biosciences) and 10% serum. After co-culture with LLC tumor cells, confocal images were obtained using an SP5 confocal microscope (Leica Microsystems). Cells were classified as lamellipodial/round-shaped or filopodial based on their morphology and the ratio of each type in the visual field determined.

Chain of p53-MDM2 interaction (Q00987 whole entry): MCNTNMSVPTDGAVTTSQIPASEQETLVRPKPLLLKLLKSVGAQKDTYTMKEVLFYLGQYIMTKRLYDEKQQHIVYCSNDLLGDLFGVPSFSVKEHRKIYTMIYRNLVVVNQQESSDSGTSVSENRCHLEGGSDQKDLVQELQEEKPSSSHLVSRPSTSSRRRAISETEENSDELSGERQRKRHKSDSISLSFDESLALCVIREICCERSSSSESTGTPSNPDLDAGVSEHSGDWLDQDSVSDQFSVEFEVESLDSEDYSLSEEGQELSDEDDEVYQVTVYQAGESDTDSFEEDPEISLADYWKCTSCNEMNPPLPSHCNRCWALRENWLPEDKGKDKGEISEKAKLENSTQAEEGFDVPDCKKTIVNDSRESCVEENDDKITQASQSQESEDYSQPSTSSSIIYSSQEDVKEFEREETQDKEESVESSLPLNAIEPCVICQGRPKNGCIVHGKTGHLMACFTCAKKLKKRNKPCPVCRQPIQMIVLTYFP

effect on p53-MDM2 interaction ([1]; HTRF): did not affect
IC50 ([1]; HTRF titration assay): > 1 µM
inhibition of FROUNT-CCR5 interaction [4]: specifically inhibited
SMILES: CCN(CC)C(=S)SSC(=S)N(CC)CC [DSF, disulfiram]
chemotaxis directionality [2]: impaired
chemotaxis velocity [2]: impaired
number of tumor-associated monocytes/macrophages ([3]; day 20 after tumor inoculation): reduced
subcutaneous tumor growth ([3]; oral DSF in diet (0.8 mg DSF/1 g CE-2) from 4 days after inoculation): inhibited
membrane localization of PH-Akt upon CCL2 stimulation [5]: significantly impaired
CCL2-induced pseudopodia protrusion [6]: inhibited
